From patent US20060069132A1, “Azolecarboxamide herbicides” (priority 2004, published 2006)

What was measured:
cocklebur = assay: Test B pre-/postemergence herbicide test; type: in vivo, Xanthium strumarium; conditions: for Plant response rating (0 to 100 scale), Cocklebur: 0 is no effect, preemergence
Procedure, shortened: (§1)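 Response was scored visually 13 to 15 days after treatment against untreated greenhouse controls, 0 meaning no effect and 100 complete control. Formulations (solvent mixture plus surfactant) went onto soil after planting, onto foliage of 1- to 4-leaf plants, and onto 2-leaf plants in a flooded paddy set including rice and barnyardgrass.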

large crabgrass = assay: Test B pre-/postemergence herbicide test; type: in vivo, Digitaria sanguinalis; conditions: for Plant response rating (0 to 100 scale), Crabgrass, Large: 0 is no effect, preemergence
Procedure, shortened: (§2)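 Visual rating, 0 (no effect) to 100 (complete control), versus untreated controls after 13–15 d in greenhouse. Pre- and postemergence applications (postemergence plants 2–18 cm, 1–4 leaves); flooded paddy arm at 2-leaf stage. Compounds in non-phytotoxic solvent plus surfactant.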

rice = assay: Test B flooded paddy test; type: in vivo, Oryza sativa; conditions: 1000 g ai/ha, scale 0 to 100 (0 no effect, 100 complete control)
Procedure, shortened: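 Read-out: visual comparison with controls, scored 0 to 100, where 100 means complete control and 0 no effect. Formulated chemicals were applied postemergence to plants 2–18 cm tall (1- to 4-leaf), or to flooded-paddy plants at the 2-leaf stage, then held 13 to 15 days under glass.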

velvetleaf = assay: Test B pre-/postemergence herbicide test; type: in vivo, Abutilon theophrasti; conditions: for Plant response rating (0 to 100 scale), Velvetleaf: 0 is no effect, 100 is complete control, preemergence
Procedure, shortened: as §2

blackgrass = assay: Test B postemergence herbicide test; type: in vivo, Alopecurus myosuroides
Procedure, shortened: (§3)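 Visual control ratings, 0–100 versus untreated controls, taken after 13 to 15 days in the greenhouse. Blackgrass received a postemergence spray at the 1- to 4-leaf stage (2–18 cm); ducksalad, umbrella sedge and barnyardgrass were flooded-paddy treated at 2 leaves.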

ducksalad = assay: Test B flooded paddy test; type: in vivo, Heteranthera limosa; conditions: 1000 g ai/ha, scale 0 to 100 (0 no effect, 100 complete control)
Procedure, shortened: as §3

giant foxtail = assay: Test B pre-/postemergence herbicide test; type: in vivo, Setaria faberi; conditions: for Plant response rating (0 to 100 scale), Foxtail, Giant: 0 is no effect, preemergence
Procedure, shortened: as §2

lambsquarters = assay: Test B pre-/postemergence herbicide test; type: in vivo, Chenopodium album; conditions: for Plant response rating (0 to 100 scale), Lambsquarters: 0 is no effect, 100 is complete control, preemergence
Procedure, shortened: as §2

morningglory = assay: Test B pre-/postemergence herbicide test; type: in vivo, Ipomoea coccinea; conditions: for Plant response rating (0 to 100 scale), Morningglory: 0 is no effect, 100 is complete control, preemergence
Procedure, shortened: as §1

wild oat = assay: Test B postemergence herbicide test; type: in vivo, Avena fatua
Procedure, shortened: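 Plants grow to 1- to 4-leaf stage (2–18 cm) for postemergence spraying, or to 2-leaf stage for the paddy test. Formulated compound is applied. Greenhouse holding lasts 13–15 days. Response is scored visually relative to controls, 0 no effect to 100 complete control; a dash means no result.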

corn = assay: Test B pre-/postemergence herbicide test; type: in vivo, Zea mays; conditions: for Plant response rating (0 to 100 scale), Corn: 0 is no effect, preemergence
Procedure, shortened: as §2

Surinam grass = assay: Test B pre-/postemergence herbicide test; type: in vivo, Urochloa decumbens; conditions: for Plant response rating (0 to 100 scale), Surinam Grass: 0 is no effect, 100 is complete control, preemergence
Procedure, shortened: as §2

pigweed = assay: Test B pre-/postemergence herbicide test; type: in vivo, Amaranthus retroflexus; conditions: for Plant response rating (0 to 100 scale), Pigweed: 0 is no effect, 100 is complete control, preemergence
Procedure, shortened: as §2

barnyardgrass = assay: Test B pre-/postemergence herbicide test; type: in vivo, Echinochloa crus-galli; conditions: for Plant response rating (0 to 100 scale), Barnyardgrass: 0 is no effect, preemergence
Procedure, shortened: as §1

[1] = tested on: small flower umbrella sedge; assay: Test B flooded paddy test; type: in vivo, Cyperus difformis; conditions: 1000 g ai/ha, scale 0 to 100 (0 no effect, 100 complete control)
Procedure, shortened: as §3

[2] = 125 g ai/ha, 100 is complete control
[3] = 125 g ai/ha, visual rating, scale 0 (no effect) to 100 (complete control), postemergence
[4] = postemergence, 500 g ai/ha, scale 0 to 100, 0 is no effect, 100 is complete control
[5] = Postemergence, 500 g ai/ha, scale 0 (no effect) to 100 (complete control)
[6] = postemergence, 125 g ai/ha, scale 0 to 100
[7] = Postemergence, 125 g ai/ha, scale 0 (no effect) to 100 (complete control)

Row | SMILES | Plant response rating (0 to 100 scale), Cocklebur (cocklebur; [2]) | Plant response rating (0 to 100 scale), Crabgrass, Large (large crabgrass; [2]) | Rice plant response rating (rice) | Plant response rating (0 to 100 scale), Velvetleaf (velvetleaf; 125 g ai/ha) | Velvetleaf plant response rating (velvetleaf; [5]) | Ducksalad plant response rating (ducksalad) | Plant response rating (0 to 100 scale), Foxtail, Giant (giant foxtail; [2]) | Plant response rating (0 to 100 scale), Lambsquarters (lambsquarters; 125 g ai/ha) | Lambsquarters plant response rating (lambsquarters; [5]) | Plant response rating (0 to 100 scale), Morningglory (morningglory; 125 g ai/ha) | Morningglory plant response rating (morningglory; [5]) | Oat, Wild plant response rating (wild oat; [5]) | Plant response rating (0 to 100 scale), Corn (corn; [2]) | Plant response rating (0 to 100 scale), Surinam Grass (Surinam grass; 125 g ai/ha) | Surinam Grass plant response rating (Surinam grass; [5]) | Plant response rating (0 to 100 scale), Pigweed (pigweed; 125 g ai/ha) | Pigweed plant response rating (pigweed; [5]) | Plant response rating (0 to 100 scale), Barnyardgrass (barnyardgrass; [2]) | Sedge, Umbrella plant response rating [1] | Cocklebur plant response rating (cocklebur; [5]) | further results
1 | CCc1nn(C(C)C)nc1C(=O)Nc1cccc(C(=O)N2CCCCC2)c1 [Compound 385] | 0 | 90 | 80 | 60 | 20 | 80 | 30 | 90 | 60 | 20 | 80 | 20 | 30 | 80 | 20 | 70 | 60 | 80 | 80 |  | Cocklebur plant response rating (cocklebur; [3]): 20; Cocklebur plant response rating (cocklebur; [4]): 50; Crabgrass, Large plant response rating (large crabgrass; [3]): 0; Crabgrass, Large plant response rating (large crabgrass; [4]): 20; Velvetleaf plant response rating (velvetleaf; [3]): 20; Blackgrass plant response rating (blackgrass; [3]): 10; Blackgrass plant response rating (blackgrass; [4]): 30; Foxtail, Giant plant response rating (giant foxtail; [3]): 10; Foxtail, Giant plant response rating (giant foxtail; [4]): 20; Lambsquarters plant response rating (lambsquarters; [3]): 50; Morningglory plant response rating (morningglory; [3]): 30; Oat, Wild plant response rating (wild oat; [3]): 0; Corn plant response rating (corn; [3]): 10; Corn plant response rating (corn; [4]): 10; Surinam Grass plant response rating (Surinam grass; [3]): 0; Pigweed plant response rating (pigweed; [3]): 50; Barnyardgrass plant response rating (barnyardgrass; [3]): 0; Barnyardgrass plant response rating (barnyardgrass; [4]): 10
2 | CCc1nn(C(C)C)nc1C(=O)Nc1cccc(C(=O)N(C)CC)c1 [Compound 386] | 20 | 100 | 80 | 60 | 50 | 90 | 90 | 100 | 60 | 50 | 20 | 0 | 40 | 80 | 10 | 100 | 60 | 90 | 80 |  | Cocklebur plant response rating (cocklebur; [3]): 40; Cocklebur plant response rating (cocklebur; [4]): 50; Crabgrass, Large plant response rating (large crabgrass; [3]): 10; Crabgrass, Large plant response rating (large crabgrass; [4]): 20; Velvetleaf plant response rating (velvetleaf; [3]): 40; Blackgrass plant response rating (blackgrass; [3]): 0; Blackgrass plant response rating (blackgrass; [4]): 40; Foxtail, Giant plant response rating (giant foxtail; [3]): 20; Foxtail, Giant plant response rating (giant foxtail; [4]): 20; Lambsquarters plant response rating (lambsquarters; [3]): 30; Morningglory plant response rating (morningglory; [3]): 20; Oat, Wild plant response rating (wild oat; [3]): 0; Corn plant response rating (corn; [3]): 0; Corn plant response rating (corn; [4]): 10; Surinam Grass plant response rating (Surinam grass; [3]): 10; Pigweed plant response rating (pigweed; [3]): 50; Barnyardgrass plant response rating (barnyardgrass; [3]): 0; Barnyardgrass plant response rating (barnyardgrass; [4]): 10
3 | CCn1nc(C(C)(C)C)cc1C(=O)Nc1cccc(OS(=O)(=O)CC)c1 [Compound 408] | 0 | 90 | 80 | 50 | 70 | 90 | 40 | 100 | 100 | 20 | 30 | 50 | 10 | 30 | 30 | 100 | 100 | 70 | 90 | 70 | Cocklebur plant response rating (cocklebur; [6]): 60; Crabgrass, Large plant response rating (large crabgrass; [5]): 50; Crabgrass, Large plant response rating (large crabgrass; [6]): 30; Velvetleaf plant response rating (velvetleaf; [6]): 30; Blackgrass plant response rating (blackgrass; [5]): 80; Blackgrass plant response rating (blackgrass; [6]): 40; Foxtail, Giant plant response rating (giant foxtail; [5]): 50; Foxtail, Giant plant response rating (giant foxtail; [6]): 30; Lambsquarters plant response rating (lambsquarters; [6]): 90; Morningglory plant response rating (morningglory; [6]): 10; Oat, Wild plant response rating (wild oat; [6]): 30; Corn plant response rating (corn; [5]): 10; Corn plant response rating (corn; [6]): 10; Surinam Grass plant response rating (Surinam grass; [6]): 20; Pigweed plant response rating (pigweed; [6]): 90; Barnyardgrass plant response rating (barnyardgrass; [7]): 20; Barnyardgrass plant response rating (barnyardgrass; [5]): 40
4 | CCc1nn(C(C)C)nc1C(=O)Nc1cccc(C(=S)N(C)C)c1 [Compound 409] | 10 | 90 | 70 | 30 | 0 | 70 | 70 | 100 | 70 | 60 | 70 | 10 | 50 | 90 | 30 | 90 | 70 | 90 | 90 | 10 | Cocklebur plant response rating (cocklebur; [6]): 0; Crabgrass, Large plant response rating (large crabgrass; [5]): 10; Crabgrass, Large plant response rating (large crabgrass; [6]): 0; Velvetleaf plant response rating (velvetleaf; [6]): 0; Blackgrass plant response rating (blackgrass; [5]): 40; Blackgrass plant response rating (blackgrass; [6]): 10; Foxtail, Giant plant response rating (giant foxtail; [5]): 20; Foxtail, Giant plant response rating (giant foxtail; [6]): 0; Lambsquarters plant response rating (lambsquarters; [6]): 30; Morningglory plant response rating (morningglory; [6]): 0; Oat, Wild plant response rating (wild oat; [6]): 0; Corn plant response rating (corn; [5]): 10; Corn plant response rating (corn; [6]): 0; Surinam Grass plant response rating (Surinam grass; [6]): 10; Pigweed plant response rating (pigweed; [6]): 30; Barnyardgrass plant response rating (barnyardgrass; [7]): 0; Barnyardgrass plant response rating (barnyardgrass; [5]): 0
5 | CCN(C(C)=O)C(=O)c1ccc(F)c(NC(=O)c2cc(C(C)(C)C)nn2CC)c1 [Compound 413] |  | 20 | 60 | 0 | 50 | 80 | 10 |  | 90 | 0 | 70 | 10 | 0 | 10 | 20 | 20 | 70 | 40 | 90 | 90 | Cocklebur plant response rating (cocklebur; [6]): 30; Crabgrass, Large plant response rating (large crabgrass; [5]): 20; Crabgrass, Large plant response rating (large crabgrass; [6]): 10; Velvetleaf plant response rating (velvetleaf; [6]): 30; Blackgrass plant response rating (blackgrass; [5]): 20; Blackgrass plant response rating (blackgrass; [6]): 10; Foxtail, Giant plant response rating (giant foxtail; [5]): 20; Foxtail, Giant plant response rating (giant foxtail; [6]): 20; Lambsquarters plant response rating (lambsquarters; [6]): 70; Morningglory plant response rating (morningglory; [6]): 30; Oat, Wild plant response rating (wild oat; [6]): 0; Corn plant response rating (corn; [5]): 20; Corn plant response rating (corn; [6]): 10; Surinam Grass plant response rating (Surinam grass; [6]): 20; Pigweed plant response rating (pigweed; [6]): 50; Barnyardgrass plant response rating (barnyardgrass; [7]): 10; Barnyardgrass plant response rating (barnyardgrass; [5]): 20
